Patent publication US6355799B1, “Substituted benzene compounds, process for their preparation, and herbicidal and defoliant compositions containing them” (ISK Americas Incorporated, priority 1997, dated 2002)

Columns and labels:
Assay type in all cases: in vivo
[1] = system: field corn (Zea mays L., var. Dekalb 535, CORN); assay: Pre-emerge test, crop safety; conditions: for phytotoxicity rating CORN (crop damage): pre-emerge, 14 days after application, scale 0-100; for Pre-emerge Herbicidal Activity CORN: crop damage rating 0-100, 14 days after application
In short: (§1)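 Fourteen days after spraying, crop and weed injury was graded visually from 0, no effect, to 100, every plant dead. Test substances were dissolved in acetone and applied at 15–1000 g ai/ha with a flat-fan nozzle. Application was either pre-emergence, one day after sowing, or post-emergence at the 2–3 leaf stage.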

[2] = system: upland rice (Oryza sp., var. Tebonnet, RICE); assay: Pre-emerge test, crop safety; conditions: for phytotoxicity rating RICE (crop damage): pre-emerge, 14 days after application, scale 0-100; for Pre-emerge Herbicidal Activity RICE: crop damage rating 0-100, 14 days after application
In short: as §1

[3] = system: field corn (Zea mays L., var. Dekalb 535, CORN); assay: Post-emerge test, crop safety; conditions: post-emerge, 14 days after application, rating scale 0-100
In short: (§2)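 Plants grown in 10 cm pots of sandy loam mix received acetone-dissolved compounds through a moving flat-fan nozzle. Doses ranged from 15 to 1000 g ai/ha. Pre-emerge pots were seeded one day earlier, post-emerge pots 8–21 days earlier. Fourteen days on, each pot was graded 0–100 for damage.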

[4] = system: upland rice (Oryza sp., var. Tebonnet, RICE); assay: Post-emerge test, crop safety; conditions: post-emerge, 14 days after application, rating scale 0-100
In short: as §2

[5] = system: green foxtail (Setaria viridis, SETVI); assay: Pre-emerge test, greenhouse herbicide activity screening; conditions: for phytotoxicity rating SETVI: pre-emerge, 14 days after application, scale 0-100; for Pre-emerge Herbicidal Activity SETVI: phytotoxicity rating 0-100, 14 days after application
In short: (§3)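 Rating: 0–100 visual injury, 14 DAA. Application: acetone, 187 l/ha, 15–1000 g ai/ha, flat-fan track sprayer with nozzle 40–45 cm above soil or canopy. Post-emerge runs used 0.25% v/v surfactant on 2–3 leaf plants.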

[6] = system: lambsquarters (Chenopodium album, CHEAL); assay: as above; conditions: for phytotoxicity rating CHEAL: pre-emerge, 14 days after application, scale 0-100; for Pre-emerge Herbicidal Activity CHEAL: phytotoxicity rating 0-100, 14 days after application
In short: as §3

[7] = system: sicklepod (Cassia obtusifolia, CASOB); assay: as above; conditions: for phytotoxicity rating CASOB: pre-emerge, 14 days after application, scale 0-100; for Pre-emerge Herbicidal Activity CASOB: phytotoxicity rating 0-100, 14 days after application
In short: as §3

[8] = system: barnyardgrass (Echinochloa crus-galli, ECHCG); assay: as above; conditions: for phytotoxicity rating ECHCG: pre-emerge, 14 days after application, scale 0-100; for Pre-emerge Herbicidal Activity ECHCG: phytotoxicity rating 0-100, 14 days after application
In short: as §3

[9] = system: large crabgrass (Digitaria sanguinalis, DIGSA); assay: as above; conditions: for phytotoxicity rating DIGSA: pre-emerge, 14 days after application, scale 0-100; for Pre-emerge Herbicidal Activity DIGSA: phytotoxicity rating 0-100, 14 days after application
In short: as §3

[10] = system: ivyleaf morningglory (Ipomoea hederacea, IPOHE); assay: as above; conditions: for phytotoxicity rating IPOHE: pre-emerge, 14 days after application, scale 0-100; for Pre-emerge Herbicidal Activity IPOHE: phytotoxicity rating 0-100, 14 days after application
In short: as §3

[11] = system: velvetleaf (Abutilon theophrasti, ABUTH); assay: as above; conditions: for phytotoxicity rating ABUTH: pre-emerge, 14 days after application, scale 0-100; for Pre-emerge Herbicidal Activity ABUTH: phytotoxicity rating 0-100, 14 days after application
In short: as §3

[12] = system: redroot pigweed (Amaranthus retroflexus, AMARE); assay: as above; conditions: for phytotoxicity rating AMARE: pre-emerge, 14 days after application, scale 0-100; for Pre-emerge Herbicidal Activity AMARE: phytotoxicity rating 0-100, 14 days after application
In short: as §2

[13] = system: green foxtail (Setaria viridis, SETVI); assay: Post-emerge test, greenhouse herbicide activity screening; conditions: post-emerge, 14 days after application, rating scale 0-100
In short: (§4)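 Sandy loam pots; pre-emerge: sown 1 d pre-spray, surface-watered after, then bottom-watered. Post-emerge: sown 8–21 d before, 2–3 leaf stage, + 0.25% v/v NIS, bottom-watered. Acetone, 187 l/ha track spray, 15–1000 g ai/ha. 0–100 injury score, day 14.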

[14] = system: lambsquarters (Chenopodium album, CHEAL); assay: as above; conditions: post-emerge, 14 days after application, rating scale 0-100
In short: as §4

[15] = system: johnsongrass (Sorghum halepense, SORHA); assay: as above; conditions: post-emerge, 14 days after application, rating scale 0-100
In short: as §4

[16] = system: sicklepod (Cassia obtusifolia, CASOB); assay: as above; conditions: post-emerge, 14 days after application, rating scale 0-100
In short: as §4

[17] = system: barnyardgrass (Echinochloa crus-galli, ECHCG); assay: as above; conditions: post-emerge, 14 days after application, rating scale 0-100
In short: as §4

[18] = system: large crabgrass (Digitaria sanguinalis, DIGSA); assay: as above; conditions: post-emerge, 14 days after application, rating scale 0-100
In short: as §4

[19] = system: ivyleaf morningglory (Ipomoea hederacea, IPOHE); assay: as above; conditions: post-emerge, 14 days after application, rating scale 0-100
In short: as §4

[20] = system: velvetleaf (Abutilon theophrasti, ABUTH); assay: as above; conditions: post-emerge, 14 days after application, rating scale 0-100
In short: as §4

[21] = system: redroot pigweed (Amaranthus retroflexus, AMARE); assay: as above; conditions: post-emerge, 14 days after application
In short: as §4

[22] = 250 g ai/ha, rating scale 0-100

SMILES: COc1ccccc1C=CC(=O)Nc1c(OC)c(Cl)cc(F)c1-n1c(=O)cc(C(F)(F)F)n(C)c1=O [2-127]
- phytotoxicity rating CORN (crop damage) ([1]; 63 g ai/ha): 0
- phytotoxicity rating CORN (crop damage) ([1]; 250 g ai/ha): 0
- phytotoxicity rating RICE (crop damage) ([2]; 63 g ai/ha): 0
- phytotoxicity rating RICE (crop damage) ([2]; 250 g ai/ha): 10
- CORN phytotoxicity rating (crop damage) ([3]; 63 g ai/ha): 10
- CORN phytotoxicity rating (crop damage) ([3]; 250 g ai/ha): 15
- RICE phytotoxicity rating (crop damage) ([4]; 63 g ai/ha): 30
- RICE phytotoxicity rating (crop damage) ([4]; 250 g ai/ha): 35
- phytotoxicity rating SETVI ([5]; 63 g ai/ha): 20
- phytotoxicity rating SETVI ([5]; 250 g ai/ha): 80
- phytotoxicity rating CHEAL ([6]; 63 g ai/ha): 100
- phytotoxicity rating CHEAL ([6]; 250 g ai/ha): 100
- phytotoxicity rating CASOB ([7]; 63 g ai/ha): 0
- phytotoxicity rating CASOB ([7]; 250 g ai/ha): 40
- phytotoxicity rating ECHCG ([8]; 63 g ai/ha): 0
- phytotoxicity rating ECHCG ([8]; 250 g ai/ha): 40
- phytotoxicity rating DIGSA ([9]; 63 g ai/ha): 30
- phytotoxicity rating DIGSA ([9]; 250 g ai/ha): 100
- phytotoxicity rating IPOHE ([10]; 63 g ai/ha): 0
- phytotoxicity rating IPOHE ([10]; 250 g ai/ha): 50
- phytotoxicity rating ABUTH ([11]; 63 g ai/ha): 100
- phytotoxicity rating ABUTH ([11]; 250 g ai/ha): 100
- phytotoxicity rating AMARE ([12]; 63 g ai/ha): 90
- phytotoxicity rating AMARE ([12]; 250 g ai/ha): 100
- SETVI phytotoxicity rating ([13]; 63 g ai/ha): 30
- SETVI phytotoxicity rating ([13]; 250 g ai/ha): 40
- CHEAL phytotoxicity rating ([14]; 63 g ai/ha): 70
- CHEAL phytotoxicity rating ([14]; 250 g ai/ha): 100
- SORHA phytotoxicity rating ([15]; 63 g ai/ha): 20
- SORHA phytotoxicity rating ([15]; 250 g ai/ha): 20
- CASOB phytotoxicity rating ([16]; 63 g ai/ha): 100
- CASOB phytotoxicity rating ([16]; 250 g ai/ha): 60
- ECHCG phytotoxicity rating ([17]; 63 g ai/ha): 30
- ECHCG phytotoxicity rating ([17]; 250 g ai/ha): 20
- DIGSA phytotoxicity rating ([18]; 63 g ai/ha): 20
- DIGSA phytotoxicity rating ([18]; 250 g ai/ha): 30
- IPOHE phytotoxicity rating ([19]; 63 g ai/ha): 100
- IPOHE phytotoxicity rating ([19]; 250 g ai/ha): 95
- ABUTH phytotoxicity rating ([20]; 63 g ai/ha): 100
- ABUTH phytotoxicity rating ([20]; 250 g ai/ha): 100
- AMARE phytotoxicity rating ([21]; 63 g ai/ha, rating scale 0-100): 100
- AMARE phytotoxicity rating [21, 22]: 100

SMILES: COc1c(Cl)cc(F)c(-n2c(=O)cc(C(F)(F)F)n(C)c2=O)c1NC(=O)OCc1ccccn1 [4-36]
- Pre-emerge Herbicidal Activity CORN ([1]; 63 g ai/ha): 90
- Pre-emerge Herbicidal Activity CORN ([1]; 250 g ai/ha): 100
- Pre-emerge Herbicidal Activity RICE ([2]; 63 g ai/ha): 60
- Pre-emerge Herbicidal Activity RICE ([2]; 250 g ai/ha): 95
- phytotoxicity rating CORN (crop damage) ([3]; 63 g ai/ha): 50
- phytotoxicity rating CORN (crop damage) ([3]; 250 g ai/ha): 100
- phytotoxicity rating RICE (crop damage) ([4]; 63 g ai/ha): 60
- phytotoxicity rating RICE (crop damage) ([4]; 250 g ai/ha): 100
- Pre-emerge Herbicidal Activity SETVI ([5]; 63 g ai/ha): 60
- Pre-emerge Herbicidal Activity SETVI ([5]; 250 g ai/ha): 100
- Pre-emerge Herbicidal Activity CHEAL ([6]; 63 g ai/ha): 100
- Pre-emerge Herbicidal Activity CHEAL ([6]; 250 g ai/ha): 100
- Pre-emerge Herbicidal Activity CASOB ([7]; 63 g ai/ha): 80
- Pre-emerge Herbicidal Activity CASOB ([7]; 250 g ai/ha): 100
- Pre-emerge Herbicidal Activity ECHCG ([8]; 63 g ai/ha): 30
- Pre-emerge Herbicidal Activity ECHCG ([8]; 250 g ai/ha): 90
- Pre-emerge Herbicidal Activity DIGSA ([9]; 63 g ai/ha): 30
- Pre-emerge Herbicidal Activity DIGSA ([9]; 250 g ai/ha): 100
- Pre-emerge Herbicidal Activity IPOHE ([10]; 63 g ai/ha): 100
- Pre-emerge Herbicidal Activity IPOHE ([10]; 250 g ai/ha): 100
- Pre-emerge Herbicidal Activity ABUTH ([11]; 63 g ai/ha): 100
- Pre-emerge Herbicidal Activity ABUTH ([11]; 250 g ai/ha): 100
- Pre-emerge Herbicidal Activity AMARE ([12]; 63 g ai/ha): 90
- Pre-emerge Herbicidal Activity AMARE ([12]; 250 g ai/ha): 100
- phytotoxicity rating SETVI ([13]; 63 g ai/ha): 90
- phytotoxicity rating SETVI ([13]; 250 g ai/ha): 90
- phytotoxicity rating CHEAL ([14]; 63 g ai/ha): 100
- phytotoxicity rating CHEAL ([14]; 250 g ai/ha): 100
- phytotoxicity rating SORHA ([15]; 63 g ai/ha): 10
- phytotoxicity rating SORHA ([15]; 250 g ai/ha): 90
- phytotoxicity rating CASOB ([16]; 63 g ai/ha): 100
- phytotoxicity rating CASOB ([16]; 250 g ai/ha): 100
- phytotoxicity rating ECHCG ([17]; 63 g ai/ha): 20
- phytotoxicity rating ECHCG ([17]; 250 g ai/ha): 60
- phytotoxicity rating DIGSA ([18]; 63 g ai/ha): 30
- phytotoxicity rating DIGSA ([18]; 250 g ai/ha): 70
- phytotoxicity rating IPOHE ([19]; 63 g ai/ha): 100
- phytotoxicity rating IPOHE ([19]; 250 g ai/ha): 100
- phytotoxicity rating ABUTH ([20]; 63 g ai/ha): 100
- phytotoxicity rating ABUTH ([20]; 250 g ai/ha): 100
- phytotoxicity rating AMARE ([21]; 63 g ai/ha, rating scale 0-100 (0 no damage, 100 complete death)): 100
- phytotoxicity rating AMARE [21, 22]: 100
